In the first experiment the test system is Plasmodium falciparum. As to the kind of experiment: Antiplasmodial activity against chloroquine-sensitive Plasmodium falciparum NF54. It is filed as functional, organism-based.
Settings: not given; call rule not given here
Broadly, the EC50 is the midpoint of the concentration-response curve. Turning to `Cl.O=C(OCc1cccc2ccccc12)c1nc2c(OC3CCNCC3)cccc2o1`, the EC50 result was “Not Active”.
On the same count and under the same terms, in the case of `Cl.O=C(OCc1ccccc1)c1nc2c(OC3CCNCC3)cccc2o1` it was “Not Active”; in that of `Cl.O=C(OCCc1ccccc1)c1nc2c(OC3CCNCC3)cccc2o1`, “Not Active”.
Consider `Cl.O=C(NCCc1ccccc1)c1nc2c(OC3CCNCC3)cccc2o1`, for which the EC50 result is “Not Active”.
For the molecule `Cl.O=C(NCc1ccccc1)c1nc2c(OC3CCNCC3)cccc2o1`, the EC50 result is “Not Active”.

Staying with this experiment, now noted: Plasmodium falciparum, NF54; read-out: EC50.
For the molecule `CCN(CC)CCCC(C)Nc1ccnc2cc(Cl)ccc12` (configuration not stated) [CHLOROQUINE], the EC50 worked out at 0.013 µM.
`O=C(NCc1ccccc1)c1cc2c(OC3CCNCC3)cccc2[nH]1`: the EC50 was 3.74 µM.
As to `Cc1c(C(=O)OCCc2ccccc2)[nH]c2cccc(OC3CCNCC3)c12`, the EC50 came to 3.9 µM.
On to `O=C(OCc1cccc2ccccc12)c1cc2c(OC3CCNCC3)cccc2s1`, for which the EC50 was determined as 1.9 µM.
On to `O=C(NCc1cccc2ccccc12)c1cc2c(OC3CCNCC3)cccc2s1`, for which the half-maximal effective concentration (EC50) amounted to 0.71 µM.
As to `O=C(NCc1ccccc1)c1cc2c(OC3CCNCC3)cccc2s1`, the EC50 came to 3.48 µM.
`Cc1c(C(=O)OCc2cccc3ccccc23)[nH]c2cccc(OC3CCNCC3)c12`: the EC50 is 0.74 µM.
The same measure, in the same setting: in the case of `Cc1c(C(=O)OCc2ccccc2)[nH]c2cccc(OC3CCNCC3)c12` it was 0.56 µM; in that of `Cc1c(C(=O)NCc2cccc3ccccc23)[nH]c2cccc(OC3CCNCC3)c12`, 0.74 µM; in that of `O=C(NCc1cccc2ccccc12)c1cc2c(OC3CCNCC3)cccc2[nH]1`, 0.9 µM.
`O=C(OCCc1ccccc1)c1cc2c(OC3CCNCC3)cccc2[nH]1`: the EC50 turned out to be 6.53 µM.
For the molecule `O=C(OCc1ccccc1)c1cc2c(OC3CCNCC3)cccc2[nH]1`, the EC50 amounted to 3.39 µM.
On the same count and under the same terms, in the case of `O=C(OCCc1ccccc1)c1cc2c(OC3CCNCC3)cccc2s1` it was 5.87 µM; in that of `O=C(NCCc1ccccc1)c1cc2c(OC3CCNCC3)cccc2[nH]1`, 3.1 µM; in that of `Cc1c(C(=O)NCCc2ccccc2)[nH]c2cccc(OC3CCNCC3)c12`, 3.4 µM.
In the case of `Cn1c(C(=O)NCc2cccc3ccccc23)nc2cccc(OC3CCNCC3)c21`, the EC50 is 1.15 µM.
With `Cn1c(C(=O)NCc2ccccc2)nc2cccc(OC3CCNCC3)c21`, the EC50 was found to be 8.8 µM.
Consider `Cn1c(C(=O)OCCc2ccccc2)nc2cccc(OC3CCNCC3)c21`, for which the EC50 is 11.1 µM.
For the molecule `Cn1c(C(=O)OCc2cccc3ccccc23)nc2cccc(OC3CCNCC3)c21`, the EC50 came to 7.37 µM.
Same read-out and setting: in the case of `O=C(NCc1cccc2ccccc12)c1nc2c(OC3CCNCC3)cccc2o1` it was 1.96 µM; in that of `Cn1c(C(=O)NCCc2ccccc2)nc2cccc(OC3CCNCC3)c21`, 8.69 µM.
As to `Cc1c(C(=O)NCc2ccccc2)[nH]c2cccc(OC3CCNCC3)c12`, the EC50 turned out to be 6.11 µM.
The same measure, in the same setting: in the case of `O=C(OCc1ccccc1)c1cc2c(OC3CCNCC3)cccc2s1` it was 5.69 µM; in that of `C[C@H]1[C@H](OC(=O)CCC(=O)O)O[C@@H]2O[C@@]3(C)CC[C@H]4[C@H](C)CC[C@@H]1[C@@]24OO3` [ARTESUNATE], 0.00941 µM; in that of `Cn1c(C(=O)OCc2ccccc2)nc2cccc(OC3CCNCC3)c21`, 13.3 µM.
Take `O=C(NCCc1ccccc1)c1cc2c(OC3CCNCC3)cccc2s1`: the EC50 was 3.01 µM.
As for `O=C(OCc1cccc2ccccc12)c1cc2c(OC3CCNCC3)cccc2[nH]1`, the EC50 was 0.83 µM.

The values are drawn from ChEMBL document CHEMBL4261632, “Synthesis of five libraries of 6,5-fused heterocycles to establish the importance of the heterocyclic core for antiplasmodial activity” (Bioorg Med Chem, 2018).
